# Assay results taken from patent US11780839B2, “Compounds for treating Huntington's disease” (PTC THERAPEUTICS, INC., priority 2018, dated 2023).
# Tested on: Endogenous Huntingtin Protein
# Assay: Endogenous Huntingtin Protein Assay (ELISA-based Meso Scale Discovery electrochemiluminescence)
# Format: cell-based
# Conditions: MSD electrochemiluminescence, Table 1
# In short: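 Sandwich MSD electrochemiluminescence immunoassay. Capture used MW1 (expanded polyglutamine) or MAB2166 antibody coated at 1 μg/mL overnight at 4 °C. Samples were bound overnight at 4 °C, then a rabbit monoclonal detection antibody and SULFO-TAG anti-rabbit, each at 0.25 μg/mL, were applied for 1 h at room temperature.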
row,Structure (SMILES),IC50
1,"CC1(C)C[C@@H](Nc2ncc(-c3ccc(-c4c[nH]nc4F)cc3O)nn2)[C@@H](F)C(C)(C)N1 [Cpd 189, 5-(3-fluoro-1H-pyrazol-4-yl)-2-(3-{[(3R,4R)-3-fluoro-2,2,6,6-tetramethylpiperidin-4-yl]amino}-1,2,4-triazin-6-yl)phenol]",≤ 100 nM
2,"CC1(C)CC(Oc2ncc(-c3ccc(-c4cc[nH]n4)cc3O)nn2)CC(C)(C)N1 [Cpd 107, 5-(1H-pyrazol-3-yl)-2-{3-[(2,2,6,6-tetramethylpiperidin-4-yl)oxy]-1,2,4-triazin-6-yl}phenol]",1000 to 3000 nM
3,"CC1(C)C[C@H](Nc2ncc(-c3ccc(-c4ncco4)cc3O)nn2)[C@H](F)C(C)(C)N1 [Cpd 288, 2-(3-{[(3S,4S)-3-fluoro-2,2,6,6-tetramethylpiperidin-4-yl]amino}-1,2,4-triazin-6-yl)-5-(1,3-oxazol-2-yl)phenol]",≤ 100 nM
4,"CN(c1ncc(-c2ccc(-c3cn[nH]c3)cc2O)nn1)C1C[C@H]2CC[C@@H](C1)N2 (stereo partly drawn) [Cpd 21, 2-(3-{[(1R,3S,5S)-8-azabicyclo[3.2.1]octan-3-yl](methyl)amino}-1,2,4-triazin-6-yl)-5-(1H-pyrazol-4-yl)phenol]",≤ 100 nM
5,"CN(c1ncc(-c2ccc(-c3cc(CN)c4nccn4n3)cc2O)nn1)C1CC(C)(C)NC(C)(C)C1 [Cpd 351, 5-[8-(aminomethyl)imidazo[1,2-b]pyridazin-6-yl]-2-{3-[methyl(2,2,6,6-tetramethylpiperidin-4-yl)amino]-1,2,4-triazin-6-yl}phenol]",≤ 100 nM
6,"CC1(C)C[C@H](Nc2ncc(-c3ccc(-c4ncns4)cc3O)nn2)[C@H](F)C(C)(C)N1 [Cpd 292, 2-(3-{[(3S,4S)-3-fluoro-2,2,6,6-tetramethylpiperidin-4-yl]amino}-1,2,4-triazin-6-yl)-5-(1,2,4-thiadiazol-5-yl)phenol]",≤ 100 nM
7,"CC1(NC2CCN(c3ncc(-c4ccc(-c5cn[nH]c5)cc4O)nn3)C2)CCOCC1 (stereo not drawn) [Cpd 362, 2-(3-{3-[(4-methyloxan-4-yl)amino]pyrrolidin-l-yl}-1,2,4-triazin-6-yl)-5-(1H-pyrazol-4-yl)phenol]",≤ 100 nM
8,"OCCNC1CCN(c2ncc(-c3ccc(-c4cn[nH]c4)cc3O)nn2)C1 (centres unmarked) [Cpd 333, 2-(3-{3-[(2-hydroxyethyl)amino]pyrrolidin-1-yl}-1,2,4-triazin-6-yl)-5-(1H-pyrazol-4-yl)phenol]",≤ 100 nM
9,"CN(c1ncc(-c2ccc(-c3cnc4[nH]ccc4n3)cc2O)nn1)C1CC(C)(C)NC(C)(C)C1 [Cpd 158, 2-{3-[methyl(2,2,6,6-tetramethylpiperidin-4-yl)amino]-1,2,4-triazin-6-yl}-5-(5H-pyrrolo[2,3-b]pyrazin-2-yl)phenol]",1000 to 3000 nM
10,"Cn1cnc(-c2ccc(-c3cnc(N[C@H]4CC(C)(C)NC(C)(C)[C@H]4F)nn3)c(O)c2)cc1=O [Cpd 246, 6-[4-(3-{[(3S,4S)-3-fluoro-2,2,6,6-tetramethylpiperidin-4-yl]amino}-1,2,4-triazin-6-yl)-3-hydroxyphenyl]-3-methylpyrimidin-4(3H)-one]",≤ 100 nM
11,Cn1ncc2cc(-c3ccc(-c4cnc(N[C@H]5CC(C)(C)NC(C)(C)[C@H]5F)nn4)c(O)c3)cnc21 [Cpd 284],≤ 100 nM
12,"CN1CCC2(CC1)CN(c1ncc(-c3ccc(-c4ccn(C)c(=O)c4)cc3O)nn1)C2 [Cpd 241, 4-{3-hydroxy-4-[3-(7-methyl-2,7-diazaspiro[3.5]nonan-2-yl)-1,2,4-triazin-6-yl]phenyl}-1-methylpyridin-2(1H)-one]",≤ 100 nM
13,"Oc1cc(-c2cn[nH]c2)ccc1-c1cnc(N2CCC(NC34CC5CC(CC(C5)C3)C4)C2)nn1 (centres unmarked) [Cpd 157, 2-(3-{3-[(adamantan-1-yl)amino]pyrrolidin-1-yl}-1,2,4-triazin-6-yl)-5-(1H-pyrazol-4-yl)phenol]",100 to 500 nM
14,"CN(c1ncc(-c2ccc(-c3ccnnc3)cc2O)nn1)C1CC(C)(C)NC(C)(C)C1 [Cpd 60, 2-{3-[methyl(2,2,6,6-tetramethylpiperidin-4-yl)amino]-1,2,4-triazin-6-yl}-5-(pyridazin-4-yl)phenol]",≤ 100 nM
15,"CN(c1ncc(-c2ccc(-c3ccc4[nH]cnc4c3)cc2O)nn1)C1CC(C)(C)NC(C)(C)C1 [Cpd 131, 5-(1H-benzimidazol-5-yl)-2-{3-[methyl(2,2,6,6-tetramethylpiperidin-4-yl)amino]-1,2,4-triazin-6-yl}phenol]",≤ 100 nM
16,"CN(c1cnc(-c2ccc(-c3ccc4c(cnn4C)c3)cc2O)nn1)C1CC(C)(C)NC(C)(C)C1 [Cpd 342, 5-(1-methyl-1H-indazol-5-yl)-2-{6-[methyl(2,2,6,6-tetramethylpiperidin-4-yl)amino]-1,2,4-triazin-3-yl}phenol]",100 to 500 nM
17,"CCN(CC)C1C2CN(c3ncc(-c4ccc(-c5cn[nH]c5)cc4O)nn3)CC21 (centres unmarked) [Cpd 127, 2-{3-[6-(diethylamino)-3-azabicyclo[3.1.0]hexan-3-yl]-1,2,4-triazin-6-yl}-5-(1H-pyrazol-4-yl)phenol]",100 to 500 nM
18,"CN(c1ncc(-c2ccc(-c3ccc4c(cnn4C)c3)cc2O)nn1)C1CC(C)(C)NC(C)(C)C1 [Cpd 177, 5-(1-methyl-1H-indazol-5-yl)-2-{3-[methyl(2,2,6,6-tetramethylpiperidin-4-yl)amino]-1,2,4-triazin-6-yl}phenol]",≤ 100 nM

row,Structure (SMILES),IC50
1,"CC12CC3CC(C)(C1)CC(NC1CCN(c4ncc(-c5ccc(-c6cn[nH]c6)cc5O)nn4)C1)(C3)C2 (centres unmarked) [Cpd 160, 2-(3-{3-[(3,5-dimethyladamantan-1-yl)amino]pyrrolidin-1-yl}-1,2,4-triazin-6-yl)-5-(1H-pyrazol-4-yl)phenol]",1000 to 3000 nM
2,"COc1cc(-c2cn[nH]c2)cc(O)c1-c1cnc(N2CCC(NC(C)(C)C)C2)nn1 (centres unmarked) [Cpd 376, 2-{3-[3-(tert-butylamino)pyrrolidin-1-yl]-1,2,4-triazin-6-yl}-3-methoxy-5-(1H-pyrazol-4-yl)phenol]",≤ 100 nM
3,"CO[C@H]1[C@@H](N(C)c2ncc(-c3ccc(-c4cn[nH]c4)cc3O)nn2)CC(C)(C)NC1(C)C [Cpd 293, 2-(3-{[(3S,4S)-3-methoxy-2,2,6,6-tetramethylpiperidin-4-yl](methyl)amino}-1,2,4-triazin-6-yl)-5-(1H-pyrazol-4-yl)phenol]",100 to 500 nM
4,"CN(c1ncc(-c2ccc(-n3ncc(CO)n3)cc2O)nn1)C1CC(C)(C)NC(C)(C)C1 [Cpd 172, 5-[4-(hydroxymethyl)-2H-1,2,3-triazol-2-yl]-2-{3-[methyl(2,2,6,6-tetramethylpiperidin-4-yl)amino]-1,2,4-triazin-6-yl}phenol]",≤ 100 nM
5,"CN(c1ncc(-c2ccc(-c3ncns3)cc2O)nn1)C1CC(C)(C)NC(C)(C)C1 [Cpd 65, 2-{3-[methyl(2,2,6,6-tetramethylpiperidin-4-yl)amino]-1,2,4-triazin-6-yl}-5-(1,2,4-thiadiazol-5-yl)phenol]",≤ 100 nM
6,"CN(c1ncc(-c2ccc(-c3cncnc3)cc2O)nn1)C1CC(C)(C)NC(C)(C)C1 [Cpd 86, 2-{3-[methyl(2,2,6,6-tetramethylpiperidin-4-yl)amino]-1,2,4-triazin-6-yl}-5-(pyrimidin-5-yl)phenol]",100 to 500 nM
7,"CC1(C)CC(Nc2ncc(-c3ccc(-n4ccnc4)cc3O)nn2)CC(C)(C)N1 [Cpd 273, 5-(1H-imidazol-1-yl)-2-{3-[(2,2,6,6-tetramethylpiperidin-4-yl)amino]-1,2,4-triazin-6-yl}phenol]",≤ 100 nM
8,"CC(C)(C)NC1CCN(c2ncc(-c3ccc(-c4c[nH]nc4C#N)cc3O)nn2)C1 (stereo not drawn) [Cpd 366, 4-(4-{3-[3-(tert-butylamino)pyrrolidin-l-yl]-1,2,4-triazin-6-yl]-3-hydroxyphenyl)-1H-pyrazole-3-carbonitrile]",≤ 100 nM
9,"COCC(C)(C)NC1CCN(c2ncc(-c3ccc(-c4cn[nH]c4)cc3O)nn2)C1 (centres unmarked) [Cpd 341, 2-(3-{3-[(1-methoxy-2-methylpropan-2-yl)amino]pyrrolidin-1-yl}-1,2,4-triazin-6-yl)-5-(1H-pyrazol-4-yl)phenol]",≤ 100 nM
10,"CN(c1ncc(-c2ccc(-c3ccncn3)cc2O)nn1)C1CC(C)(C)NC(C)(C)C1 [Cpd 102, 2-{3-[methyl(2,2,6,6-tetramethylpiperidin-4-yl)amino]-1,2,4-triazin-6-yl}-5-(pyrimidin-4-yl)phenol]",≤ 100 nM
11,"CN(c1cnc(-c2ccc(-n3nccn3)cc2O)nn1)C1CC(C)(C)NC(C)(C)C1 [Cpd 255, 2-{6-[methyl(2,2,6,6-tetramethylpiperidin-4-yl)amino]-1,2,4-triazin-3-yl}-5-(2H-1,2,3-triazol-2-yl)phenol]",≤ 100 nM
12,"CC(C)(C)NC1CCN(c2ncc(-c3ccc(-c4cn[nH]c4)cc3O)nn2)CC1 [Cpd 206, 2-{3-[4-(tert-butylamino)piperidin-l-yl]-1,2,4-triazin-6-yl}-5-(1H-pyrazol-4-yl)phenol]",1000 to 3000 nM
13,"Oc1cc(-c2cn[nH]c2)ccc1-c1cnc(N2CC[C@H](CNC3CCOCC3)C2)nn1 [Cpd 398, 2-{3-[(3R)-3-{[(oxan-4-yl)amino]methyl}pyrrolidin-1-yl]-1,2,4-triazin-6-yl}-5-(1H-pyrazol-4-yl)phenol]",≤ 100 nM
14,"CN(c1cnc(-c2ccc(-c3cccnc3)cc2O)nn1)C1CC(C)(C)NC(C)(C)C1 [Cpd 384, 2-{6-[methyl(2,2,6,6-tetramethylpiperidin-4-yl)amino]-1,2,4-triazin-3-yl}-5-(pyridin-3-yl)phenol]",≤ 100 nM
15,"CC1(C)CC(Nc2ncc(-c3ccc(-n4cnc(F)c4)cc3O)nn2)CC(C)(C)N1 [Cpd 275, 5-(4-fluoro-1H-imidazol-1-yl)-2-{3-[(2,2,6,6-tetramethylpiperidin-4-yl)amino]-1,2,4-triazin-6-yl}phenol]",≤ 100 nM
16,"Oc1cc(-c2cn[nH]c2)ccc1-c1cnc(N2CC[C@H](NC3CCC3)C2)nn1 [Cpd 400, 2-{3-[(3S)-3-(cyclobutylamino)pyrrolidin-1-yl]-1,2,4-triazin-6-yl}-5-(1H-pyrazol-4-yl)phenol]",≤ 100 nM
17,"CCC(C)(CC)NC1CCN(c2ncc(-c3ccc(-c4cn[nH]c4)cc3O)nn2)C1 (centres unmarked) [Cpd 170, 2-(3-{3-[(3-methylpentan-3-yl)amino]pyrrolidin-1-yl}-1,2,4-triazin-6-yl)-5-(1H-pyrazol-4-yl)phenol]",≤ 100 nM
